Residues, ends and D or L forms follow the SMILES beside them. No end group written: not given here. *: point of attachment. FITC = O=C1OC2(c3ccc(O)cc3Oc3cc(O)ccc32)c2ccc(NC(=S)*)cc21
Key:
CCL8 = target: T1, CCL8 (Homo sapiens, UniProt P80075); experiment: Fluorescence polarisation (anisotropy) assay; format: binding; conditions: labelled peptide 50 nM, CCL8 1 μM
T1 construct: SUMO (in-house protein only) (cleaved yes); made in house; host or cells: Escherichia coli RosettaGami 2 (DE3)
T1 sequence (P80075 24-99): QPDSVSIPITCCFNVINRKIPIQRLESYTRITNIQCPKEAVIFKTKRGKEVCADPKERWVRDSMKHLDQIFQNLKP
Source text: FIG. 14. Characterisation of P672_PEP-FITC by fluorescence polarisation. […] Residue C30 was mutated to A to avoid an unpaired cysteine residue. The residues corresponding to the above peptide are wholly contained within the CCL8-binding region of P672_RHIPU transferred in the hybrid evasin P672:EVA1 (SEQ ID 76, see FIG. 5). […] (SEQ ID NO: 90). FIG. 14(A). […] The curve was fitted to the two site-total and non-specific binding model in GraphPad Prism 6. Data are shown as mean and SEM of three independent experiments, with each independent experiment performed as three technical replicates. The affinity constant Kd was calculated in GraphPad Prism from the curve fit with the standard error reported.
FIG. 14(B). […] The measured fluorescence anisotropy (y-axis) of P672_PEP-FITC (50 nM) following binding to a fixed dose (1 μM)) of CCL7, CCL8, CCL18 and CXCL1 (negative control). […] Statistical significance was determined using one-way ANOVA with Sidak's correction for multiple comparisons using Graph Pad Prism 6. **=p<0.005, ****=P<0.00005, ns=not significant.
FIG. 15(C). […] In each case 100 μM (++) or […] (+) of P672_PEP was incubated with P672_PEP-FITC (50 nM)/chemokine (1 μM CCL7 and CCL18; 500 nM CCL8) and the resulting anisotropy measured. […] Experiment carried out in triplicate where each data point is the average of one experiment carried out in technical triplicate. Mean with SEM shown and statistical significance was determined using one-way ANOVA with Sidak's correction for multiple comparisons using Graph Pad Prism 6. *=p<0.05, ***=p<0.0005, ****=P<0.00005, ns=not significant.
Fluorescence polarization assays were performed using a Clariostar (BMG Tech) plate reader with the supplied FITC excitation and emission filters using 96 half area well plates (Corning). The buffer used (FP assay buffer) was 50 mM HEPES, 150 mM NaCl, 0.1% BSA, 0.002% TWEEN-20, 0.2% DMSO, pH 7.4 and the final volume in each well was 30 μL. Polarization was converted to anisotropy using the equation A=(2*P)/(3−P) where P is polarization and A is anisotropy. For each peptide tested the gain was set to 35 mP and adjusted to a well containing fluorescent peptide only. The polarization of the emitted light in the FITC emission channel was then determined. Experiments were performed as two technical and three biological replicates. Screening of P672 peptide fragments was achieved through incubation of each peptide (50 nM) with 1 μM CCL8 (Peprotech) for 30 minutes in FP assay buffer and the resulting anisotropy of the emitted light determined as above. The chemokine cross binding screen was performed by incubating 1 μM chemokine (Peprotech) with 50 nM BK1.1FITC for half an hour in FP assay buffer and the resulting anisotropy of the emitted light determined as above. […] The anisotropy was plotted as a function of CCL8 concentration and fitted to the equation: Y=Bmax*X/(KD+X)+NS*X+Background, where Y is the measured anisotropy, X is the concentration of CCL8 added, Bmax is the maximum binding, KD is the equilibrium dissociation constant, NS is the slope of the nonlinear regression and Background is the anisotropy when no CCL8 is present, in Graph Pad Prism. Displacement assays were carried out with CCL7, CCL8, and CCL18 (Peprotech, 1 μM). […] For all FP assays, the experiments were carried out as two technical and three biological replicates.

CCL18 = target: T2, CCL18 (Homo sapiens, UniProt P55774); experiment: Fluorescence polarisation (anisotropy) assay; format: binding; conditions: labelled peptide 50 nM, chemokine 1 μM
T2 construct: purchased Peprotech
T2 sequence (P55774 21-89): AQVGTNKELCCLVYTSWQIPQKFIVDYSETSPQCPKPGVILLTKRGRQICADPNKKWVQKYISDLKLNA
Experimental: (§1) FIG. 14(B). Fluorescence polarisation assay showing binding of chemokines to P672_PEP-FITC. The measured fluorescence anisotropy (y-axis) of P672_PEP-FITC (50 nM) following binding to a fixed dose (1 μM)) of CCL7, CCL8, CCL18 and CXCL1 (negative control). […] Statistical significance was determined using one-way ANOVA with Sidak's correction for multiple comparisons using Graph Pad Prism 6. **=p<0.005, ****=P<0.00005, ns=not significant.
(§2) FIG. 15(C). Displacement of P672_PEP-FITC from CCL18 by P672_PEP. In each case 100 μM (++) or […] (+) of P672_PEP was incubated with P672_PEP-FITC (50 nM)/chemokine (1 μM CCL7 and CCL18; 500 nM CCL8) and the resulting anisotropy measured. A peptide with the P672_PEP sequence scrambled ([…]) served as a negative control (P672_PEP_SCRAM; […]). Experiment carried out in triplicate where each data point is the average of one experiment carried out in technical triplicate. Mean with SEM shown and statistical significance was determined using one-way ANOVA with Sidak's correction for multiple comparisons using Graph Pad Prism 6. *=p<0.05, ***=p<0.0005, ****=P<0.00005, ns=not significant.
(§3) Fluorescence polarization assays were performed using a Clariostar (BMG Tech) plate reader with the supplied FITC excitation and emission filters using 96 half area well plates (Corning). The buffer used (FP assay buffer) was 50 mM HEPES, 150 mM NaCl, 0.1% BSA, 0.002% TWEEN-20, 0.2% DMSO, pH 7.4 and the final volume in each well was 30 μL. Polarization was converted to anisotropy using the equation A=(2*P)/(3−P) where P is polarization and A is anisotropy. For each peptide tested the gain was set to 35 mP and adjusted to a well containing fluorescent peptide only. The polarization of the emitted light in the FITC emission channel was then determined. Experiments were performed as two technical and three biological replicates. Screening of P672 peptide fragments was achieved through incubation of each peptide (50 nM) with 1 μM CCL8 (Peprotech) for 30 minutes in FP assay buffer and the resulting anisotropy of the emitted light determined as above. The chemokine cross binding screen was performed by incubating 1 μM chemokine (Peprotech) with 50 nM BK1.1FITC for half an hour in FP assay buffer and the resulting anisotropy of the emitted light determined as above. To monitor BK1.1FITC Ala mutants of binding to CCL8, 50 nM labelled peptide was incubated with varying concentrations of recombinant CCL8 (0-25 μM, final) in 30 μL FP assay buffer for 30 minutes and the resulting anisotropy of the emitted light determined as above. The anisotropy was plotted as a function of CCL8 concentration and fitted to the equation: Y=Bmax*X/(KD+X)+NS*X+Background, where Y is the measured anisotropy, X is the concentration of CCL8 added, Bmax is the maximum binding, KD is the equilibrium dissociation constant, NS is the slope of the nonlinear regression and Background is the anisotropy when no CCL8 is present, in Graph Pad Prism. Displacement assays were carried out with CCL7, CCL8, and CCL18 (Peprotech, 1 μM). […] For all FP assays, the experiments were carried out as two technical and three biological replicates.

CCL7 = target: T3, CCL7 (Homo sapiens, UniProt P80098); experiment: Fluorescence polarisation (anisotropy) assay; format: binding; conditions: labelled peptide 50 nM, chemokine 1 μM
T3 construct: purchased Peprotech
T3 sequence (P80098 24-99): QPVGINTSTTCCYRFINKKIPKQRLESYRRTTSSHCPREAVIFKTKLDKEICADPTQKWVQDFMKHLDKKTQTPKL
Experimental: as §1, §2, §3

CXCL1 = target: T4, CXCL1 (Homo sapiens, UniProt P09341); experiment: Fluorescence polarisation (anisotropy) assay; format: binding; conditions: labelled peptide 50 nM, chemokine 1 μM; negative control chemokine
T4 sequence (P09341 35-107): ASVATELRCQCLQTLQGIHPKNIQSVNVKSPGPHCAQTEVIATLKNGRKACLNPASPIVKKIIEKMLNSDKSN
Experimental: as §1
Fluorescence polarization assays were performed using a Clariostar (BMG Tech) plate reader with the supplied FITC excitation and emission filters using 96 half area well plates (Corning). The buffer used (FP assay buffer) was 50 mM HEPES, 150 mM NaCl, 0.1% BSA, 0.002% TWEEN-20, 0.2% DMSO, pH 7.4 and the final volume in each well was 30 μL. […] The polarization of the emitted light in the FITC emission channel was then determined. […] Screening of P672 peptide fragments was achieved through incubation of each peptide (50 nM) with 1 μM CCL8 (Peprotech) for 30 minutes in FP assay buffer and the resulting anisotropy of the emitted light determined as above. The chemokine cross binding screen was performed by incubating 1 μM chemokine (Peprotech) with 50 nM BK1.1FITC for half an hour in FP assay buffer and the resulting anisotropy of the emitted light determined as above. […]

[1] = tested on: human CCL5 together with CXCL8, CXCL1, CCL3 or CCL2; experiment: Biolayer interferometry polyvalent binding (association with CCL5, then CCL5 plus second chemokine); conditions: BLI, wavelength shift in association 2
human CCL5 together with CXCL8, CXCL1, CCL3 or CCL2, sequence (P13501 24-91): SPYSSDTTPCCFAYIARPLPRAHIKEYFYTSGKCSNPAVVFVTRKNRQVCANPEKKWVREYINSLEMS
Source text: FIG. 10. Polyvalent binding of CC and CXC chemokines to two-warhead evasins. […] This was followed by association with CCL5+CXCL8 (light grey trace), or with CCL5+CXCL1 (dark grey trace) or CCL5+CCL3 (black trace) (association 2), and then dissociated in buffer (dissociation).
FIG. 11. Polyvalent binding of CC and CXC chemokines to two-warhead evasins. […] This was followed by association with CCL5+CXCL8 (light grey trace), or with CCL5+CXCL1 (dark grey trace) or CCL5+CCL2 (black trace) (association 2), and then dissociated in buffer (dissociation).
The ability of 2-warhead evasins to engage in polyvalent binding of CC and CXC chemokines was further determined.

[2] = target: T5, His-tagged P672-biotinylated CCL2 interaction (Homo sapiens, UniProt P13500); experiment: AlphaScreen disruption of P672:chemokine interaction; format: binding; conditions: AlphaScreen, peptide 100 μM
T5 construct: host or cells: P672: HEK293F (in-house); biotinylated CCL2: not described
T5 sequence (P13500 24-99): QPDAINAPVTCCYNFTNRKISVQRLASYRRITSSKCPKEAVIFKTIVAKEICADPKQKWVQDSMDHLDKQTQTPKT
Experimental: (§4) B-D. Effect of indicated peptides at a concentration of 100 μM on a His-tagged P672-biotinylated CCL8, CCL2 or CCL3 interaction respectively using an AlphaScreen assay. In each panel. […] Data are presented as mean±s.e.m. of three independent experiments, shown as individual data points.
(§5) Data are shown as mean of two technical replicates. Curves were fitted with 4 parameters to estimate IC50.
(§6) The binding of these peptides to CCL8 was assayed by examining their ability to disrupt the P672:CCL8 interaction using an AlphaScreen assay (FIG. 20E, H). […] BK1 derivatives were tested for their ability to inhibit P672 interactions with CCL2 and CCL3 using AlphaScreen (FIG. 20 F, G, I, J).
(§7) AlphaScreen® Histidine detection kit was purchased from PerkinElmer (6760619M lot: 2457886) and the assay was set up in white bottom Proxiplate™ 384 Plus microplates (PerkinElmer) following the manufacturer's instructions. The assay buffer used was 50 mM HEPES, 150 mM NaCl, 0.1% BSA, 0.01% Tween20, 1% DMSO, pH 7.5 and the final volume in each well was 20 μL. Briefly, biotinylated chemokine (recombinant, final concentration 1.25 nM (CCL8), 5 nM (CCL2) and 2.5 nM (CCL3)) was pre-incubated at room temperature for 15 min with different concentrations of each peptide. His-tagged P672 (final concentration 2.5 nM (CCL8), 5 nM (CCL2) and 1.25 nM (CCL3)) was then added to each well and the plate was incubated at room temperature for 30 min. Finally, acceptor and donor beads were added as a 1:1 suspension in buffer to each well and the plate was further incubated at RT for 1 h. Data was obtained by reading the plate using a Pherastar FSX plate reader (excitation 680 nm, emission 570 nm) and was analysed using GraphPad Prism.

[3] = target: T6, His-tagged P672-biotinylated CCL3 interaction (Homo sapiens, UniProt P10147); experiment: as above; format: binding; conditions: AlphaScreen, peptide 100 μM
T6 construct: host or cells: P672: HEK293F (in-house); biotinylated CCL3: not described
T6 sequence (P10147 24-92): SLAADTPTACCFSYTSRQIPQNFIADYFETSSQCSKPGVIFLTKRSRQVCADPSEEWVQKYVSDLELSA
Experimental: as §4, §5, §6, §7

[4] = target: T7, His-tagged P672-biotinylated CCL8 interaction (Homo sapiens, UniProt P80075); experiment: as above; format: binding; conditions: peptide 100 μM
T7 construct: SUMO (cleaved yes); biotin (enzymatic, BirA co-expression); made in house; host or cells: CCL8: Escherichia coli RosettaGami 2 (DE3); P672: HEK293F
T7 sequence (P80075 24-99): T1 sequence (P80075 24-99)
Experimental: as §4, §5, §6, §7

## CC(C)[C@H](NC(=O)[C@@H]1CCCN1C(=O)[C@H](CCCCN)NC(=O)[C@H](Cc1ccccc1)NC(=O)[C@H](Cc1ccccc1)NC(=O)[C@H](CC(=O)O)NC(=O)[C@H](CCC(=O)O)NC(=O)[C@H](Cc1ccc(O)cc1)NC(=O)[C@H](CC(=O)O)NC(=O)[C@H](CCC(=O)O)NC(=O)[C@H](CC(=O)O)NC(=O)[C@H](CCC(=O)O)NC(=S)Nc1ccc2c(c1)C(=O)OC21c2ccc(O)cc2Oc2cc(O)ccc21)C(=O)N[C@H](C(=O)N[C@@H](C)C(=O)N[C@@H](Cc1ccc(O)cc1)C(=O)N[C@@H](Cc1ccccc1)C(N)=O)[C@@H](C)O [BK1.1FITC] ({FITC}-EDEDYEDFFKPVTAYF-NH2)
CCL8
  Binding to CCL8 (change in anisotropy): significant increase in anisotropy
CCL8; listed as BK1.1FTC
  Binding to CCL8 (change in anisotropy): increase in anisotropy
CCL8; listed as P672_PEP-FITC
  Binding to CCL8 (change in anisotropy): able to bind
CCL18
  Binding to CCL18 (change in anisotropy): significant increase in anisotropy
CCL18; listed as P672_PEP-FITC
  Binding to CCL18 (change in anisotropy): able to bind
CCL7
  Binding to CCL7 (change in anisotropy): significant increase in anisotropy
CCL7; listed as P672_PEP-FITC
  Binding to CCL7 (change in anisotropy): able to bind
CXCL1
  Binding to CXCL1 (change in anisotropy): not

## P1243:P1156: two-warhead evasin: P1243_AMBAM linked via GGGGS linker to P1156_IXORI
[1]
  Polyvalent (simultaneous) binding of CC and CXC chemokines: can associate simultaneously with CCL5 and either CXCL8 or CXCL1

## Y21F32: shorter peptide Y21-F32 of P672 without the C30A mutation (YEDFFKPVTCYF-NH2)
[2]
  Disruption of the P672-CCL2 interaction: disrupted
[3]
  Disruption of the P672-CCL3 interaction: disrupted
[4]
  Disruption of the P672-CCL8 interaction: significantly disrupt

Reference: patent publication US20200247855A1, “THERAPY AND DIAGNOSTICS” (OXFORD UNIVERSITY INNOVATION LIMITED, priority 2017, published 2020)
